Converted amounts (≈) assume the structure as drawn. Read-outs that look alike come from different tables or passages of the source.
How the values were obtained:
[1] = system: Staphylococcus aureus (OC8525), a methicillin-resistant strain (MRSA); assay: In vivo efficacy in a mouse systemic infection model
Experimental: Female Swiss Webster mice weighing between 20-25 g were infected intraperitoneally with approximately 5×10^5 colony forming units (CFU) Staphylococcus aureus (OC8525), a methicillin-resistant strain (MRSA), in 7% mucin. One hour later, the animals were given the test compound intravenously or orally in a dose volume of 0.2 mL. Each animal test group consisted of eight animals. The test compounds were prepared immediately before dosing in 5% dextrose in water (D5W) and diluted further in D5W for i.v. and p.o. administration. The mice were observed over a three day period and ED50 values were calculated from the resulting % survival curves (see Table 13, below). The measured ED50 values were normalized to the content of (E)-7-(3-(2-amino-1-fluoroethylidene)piperidin-1-yl)-1-cyclopropyl-6-fluoro-8-methoxy-4-oxo-1,4-dihydroquinoline-3-carboxylic acid. For some compounds, in vivo efficacy was determined by testing a group of eight mice at a single dose level only. In these cases, the data presented in Table 13, below are reported as percent survival at the designated dose.

[2] = Solubility of parent compound in citrate buffer (HPLC); assay type: physicochemical; conditions: aqueous buffer, thermodynamic from solid, 50 mM citrate buffer
Experimental: The solubility of the parent compound (the compound of formula (M), also known as ((E)-7-(3-(2-amino-1-fluoroethylidene)piperidin-1-yl)-1-cyclopropyl-6-fluoro-8-methoxy-4-oxo-1,4-dihydroquinoline-3-carboxylic acid), was determined in a separate experiment, in which solutions containing 50 mM citrate buffer at various pH were added to the solid compound at various target concentrations. The samples were mixed overnight and the pH measured with a Beckman φ360 pH/Temp/mV Meter. The samples were then filtered using nylon centrifuge filters. The supernatant was diluted and the concentration was measured with HPLC.

Rat pharmacokinetics = assay type: in vivo, Sprague-Dawley rats; conditions: iv
Experimental: Male Sprague-Dawley rats (n=4) were fasted overnight, then dosed intravenously (IV) with a 1 mg/mL solution of a compound of the present invention (prodrug) or parent (compound of formula (M)) in 20% hydroxypropyl-β-cyclodextrin at 2 mg/kg. Blood samples were collected up to 24 hours post dose into tubes containing an anticoagulant. Blood samples were centrifuged for cell removal, and 100 μL plasma was transferred to a clean vial, placed on dry ice, and stored in a −70° C. freezer prior to analysis.
Plasma samples were prepared as follows. Two volumes of acetonitrile containing formic acid and internal standard were added to one volume of plasma to precipitate proteins. Samples were centrifuged (3000 g for 5 min) and supernatant removed for analysis by LC-MS-MS. Calibration standards were prepared by adding appropriate volumes of stock solution directly into plasma and treated identically to collected plasma samples. LC-MS-MS analysis was performed utilizing multiple reaction monitoring for detection of characteristic ions for the test compounds (pro-drugs), parent (compound of formula (M)) and internal standard.
Plasma concentrations were measured as described above to determine a concentration vs time profile. The area under the plasma concentration vs time curve (AUC) was calculated using the linear trapezoidal method. Fitting of the data to obtain pharmacokinetic parameters was carried out using non-compartmental analysis, with results as listed in Table 14, below. The term “NA” means the data was not available.

[3] = In vitro bioconversion of pro-drug to parent drug in mouse blood, plasma, liver and kidney extract; assay type: in vitro ADME; conditions: for Peak Area of pro-drug: 37° C. heating block
Experimental: Compound concentrations were normalized to parent drug content by multiplying by a ratio of the relative molecular weights. Time 0 (minute) samples were prepared by immediately diluting with an equal volume of acetonitrile, vortexing, and transferring the samples to ice. […] Representative compounds of the present invention and the parent compound were analyzed by reversed-phase HPLC using an Agilent 1100 system. […] The solvent flow rate was 1 mL/min, and the column temperature was 40° C. Compound and parent peak identification was by diode array detection, monitored at 300 nm Conversion of the compounds (prodrugs) to parent drug was estimated by peak areas (A300 nm, mAU) of the respective agents. Mouse whole blood and plasma were collected from Swiss Webster mice, and stored at 4° C. until use (within 48 hours). […] For these experiments, fresh whole mouse livers or kidneys were homogenized for approximately 30 seconds (Omni-Tip™ disposable homogenizer tip) in 1 mL sterile saline and immediately stored on ice. Crude extracts (non-centrifuged) were incubated with the test compound or parent (20 μg/mL) and processed as described above.

[4] = In vitro bioconversion of pro-drug to parent drug in human blood and plasma; assay type: in vitro ADME; conditions: for Peak Area of pro-drug: 37° C.; for Conversion to the parent compound (summary in words): human whole blood and plasma
Experimental: Compounds #1, #4, #6, #15, and #16, as well as the parent drug [(E)-7-(3-(2-amino-1-fluoroethylidene)piperidin-1-yl)-1-cyclopropyl-6-fluoro-8-methoxy-4-oxo-1,4-dihydroquinoline-3-carboxylic acid] (the compound of formula (M)) were dissolved to 1 mg/mL, and diluted to 20 ng/mL in fresh, chilled (4° C.) human or mouse whole blood or plasma, or kidney and liver extract (prepared from the respective fresh mouse organs as described below). Compound concentrations were normalized to parent drug content by multiplying by a ratio of the relative molecular weights. Time 0 (minute) samples were prepared by immediately diluting with an equal volume of acetonitrile, vortexing, and transferring the samples to ice. For additional time points, samples were placed in an incubator (Tables 4 and 5), or in a heating block (Tables 6-12) at 37° C. for the indicated time, then immediately vortexed with an equal volume of acetonitrile and placed on ice. Samples were centrifuged and further diluted with an equal volume of water to a final concentration of 25% acetonitrile prior to analysis by HPLC; diluted samples were retained in the cooled (4° C.) HPLC sample injection chamber pending injection.
Representative compounds of the present invention and the parent compound were analyzed by reversed-phase HPLC using an Agilent 1100 system. Samples were injected onto a Zorbax SB-C18 column (3.5 μM, 4.6×150 mm) with a guard cartridge, and developed on a gradient of 15% aqueous acetonitrile in 0.1% trifluoroacetic acid to 85% aqueous acetonitrile in 0.1% trifluoroacetic acid over 10 minutes. The solvent flow rate was 1 mL/min, and the column temperature was 40° C. Compound and parent peak identification was by diode array detection, monitored at 300 nm Conversion of the compounds (prodrugs) to parent drug was estimated by peak areas (A300 nm, mAU) of the respective agents.
For studies with Compounds #1, #4 and #6 (with results as listed in Tables 8, 9 and 10), fresh human whole blood and plasma samples were purchased from BioChemed Services, shipped in Styrofoam coolers maintained with frozen cold packs, and used within 48 hours of receipt. For studies with Compounds #15 and #16 (with results as listed in Tables 11 and 12), blood was drawn from volunteers and whole blood samples and isolated plasma prepared and immediately placed on ice. Whole blood and plasma samples were maintained at 4° C. and used within approximately 30 hours.

[5] = Aqueous solubility, modified procedure (saturated solutions, RP-HPLC); assay type: physicochemical; conditions: thermodynamic from solid, 100 mM phosphate buffer
Experimental: In these cases, the samples were targeted at a pH of 4 and 7 and were measured exclusively using 100 mM phosphate buffers. For both pH's, measured samples were initially prepared at ˜3 mg/ml and ˜10 mg/ml concentrations and for samples that dissolved rapidly, additional compound was added to the solution until saturated solutions were obtained.

[6] = Sprague-Dawley, in vivo, male rats, 2 mg/kg i.v., analyte: the administered compound itself
[7] = fresh human blood (volunteers), 0 min
[8] = fresh human blood (volunteers), 5 min
[9] = fresh human blood (volunteers), 7.5 min
[10] = fresh human blood (volunteers), 10 min
[11] = fresh human blood (volunteers), 15 min
[12] = fresh human blood (volunteers), […]
[13] = fresh human plasma (volunteers), 0 min
[14] = fresh human plasma (volunteers), 5 min
[15] = fresh human plasma (volunteers), 7.5 min
[16] = fresh human plasma (volunteers), 10 min
[17] = fresh human plasma (volunteers), 15 min
[18] = fresh human plasma (volunteers), […]
[19] = Staphylococcus aureus, 72 h, Swiss Webster mice infected i.p. with MRSA, oral dose 1 h later, 3 day survival, normalized to parent content, read-out: ED50 p.o.
[20] = Staphylococcus aureus, iv, 72 h, Swiss Webster mice infected i.p. with MRSA, i.v. dose 1 h later, 3 day survival, normalized to parent content, read-out: ED50 i.v.
[21] = pH 4, aqueous buffer, read-out: Aqueous Solubility pH~4
[22] = pH 7, aqueous buffer, read-out: Aqueous Solubility pH~7

Compound: COc1c(N2CCC/C(=C(\F)CN)C2)c(F)cc2c(=O)c(C(=O)O)cn(C3CC3)c12 [Compound (M), (E)-7-(3-(2-amino-1-fluoroethylidene)piperidin-1-yl)-1-cyclopropyl-6-fluoro-8-methoxy-4-oxo-1,4-dihydroquinoline-3-carboxylic acid]
- ED50 ([1]; administered i.v., mouse MRSA systemic infection): 0.71 mg/kg/day
- ED50 ([1]; administered p.o., mouse MRSA systemic infection): 10.6 mg/kg/day
- solubility ([2]; pH 4.11, mixed overnight): 140 µg/mL (≈ 334 µM)
- solubility ([2]; pH 6.75, mixed overnight): 40 µg/mL (≈ 95.4 µM)
- AUC (Rat pharmacokinetics; [6]): 718 ng·h/mL
- Cmax (Rat pharmacokinetics; [6]): 805 ng/mL
- clearance (Rat pharmacokinetics; [6]): 47.1 mL/min/kg
- Vd (Rat pharmacokinetics; Sprague-Dawley, in vivo, male rats, 2 mg/kg i.v., analyte: the administered compound itself, read-out: Vss): 6.08 L/kg
- half-life (Rat pharmacokinetics; Sprague-Dawley, plasma, male rats, 2 mg/kg i.v., analyte: the administered compound itself): 1.5 h

Compound: COc1c(N2CCC/C(=C(\F)CNC(=O)[C@@H]3CCCN3C(=O)[C@@H](N)CCCCN)C2)c(F)cc2c(=O)c(C(=O)O)cn(C3CC3)c12.Cl.Cl [Compound 15, 1-Cyclopropyl-7-[3-(2-{[(2S)-1-((2S)-2,6-diamino-hexanoyl)-pyrrolidine-2-carbonyl]-amino}-1-fluoro-ethylidene)-piperidin-1-yl]-6-fluoro-8-methoxy-4-oxo-1,4-dihydro-quinoline-3-carboxylic acid dihydrochloride]
- Peak Area of pro-drug ([3]; fresh mouse blood, 0 min): 265 mAU
- Peak Area of pro-drug ([3]; fresh mouse blood, 5 min): 75 mAU
- Peak Area of pro-drug ([3]; fresh mouse blood, 7.5 min): 36 mAU
- Peak Area of pro-drug ([3]; fresh mouse blood, 10 min): 29 mAU
- Peak Area of pro-drug ([3]; fresh mouse blood, 15 min): 17 mAU
- Peak Area of pro-drug ([3]; fresh mouse blood, […]): 123 mAU
- Peak Area of pro-drug ([3]; fresh mouse plasma, 0 min): 488 mAU
- Peak Area of pro-drug ([3]; fresh mouse plasma, 5 min): 106 mAU
- Peak Area of pro-drug ([3]; fresh mouse plasma, 7.5 min): 72 mAU
- Peak Area of pro-drug ([3]; fresh mouse plasma, 10 min): 62 mAU
- Peak Area of pro-drug ([3]; fresh mouse plasma, 15 min): 22 mAU
- Peak Area of pro-drug ([3]; fresh mouse plasma, […]): 182 mAU
- Conversion to the parent compound (summary in words) ([3]; mouse whole blood and plasma): converted to the parent
- Peak Area of pro-drug [4, 7]: 242 mAU
- Peak Area of pro-drug [4, 8]: 23 mAU
- Peak Area of pro-drug [4, 9]: 10 mAU
- Peak Area of pro-drug [4, 10]: 8 mAU
- Peak Area of pro-drug [4, 11]: 6 mAU
- Peak Area of pro-drug [4, 12]: 59 mAU
- Peak Area of pro-drug [4, 13]: 330 mAU
- Peak Area of pro-drug [4, 14]: 26 mAU
- Peak Area of pro-drug [4, 15]: 14 mAU
- Peak Area of pro-drug [4, 16]: 10 mAU
- Peak Area of pro-drug [4, 17]: 11 mAU
- Peak Area of pro-drug [4, 18]: 75 mAU
- Conversion to the parent compound (summary in words) [4]: converted to the parent
- ED50 [1, 19]: > 13 mg/kg
- ED50 [1, 20]: 1.6 mg/kg
- solubility at 18 h [5, 21]: > 4600 µg/mL
- solubility at 18 h [5, 22]: > 11100 µg/mL
- Conversion to the parent drug in vivo (in words) (Rat pharmacokinetics; in vivo): rapidly converted to the parent drug

Compound: COc1c(N2CCC/C(=C(\F)CNC(=O)CNC(=O)[C@@H](N)CCC(=O)O)C2)c(F)cc2c(=O)c(C(=O)O)cn(C3CC3)c12.Cl [Compound 16, 7-(3-{2-[2-((2S)-2-Amino-4-carboxy-butyrylamino)-acetylamino]-1-fluoro-ethylidene}-piperidin-1-yl)-1-cyclopropyl-6-fluoro-8-methoxy-4-oxo-1,4-dihydro-quinoline-3-carboxylic acid hydrochloride]
- Peak Area of pro-drug ([3]; fresh mouse blood, 0 min): 332 mAU
- Peak Area of pro-drug ([3]; fresh mouse blood, 5 min): 131 mAU
- Peak Area of pro-drug ([3]; fresh mouse blood, 7.5 min): 99 mAU
- Peak Area of pro-drug ([3]; fresh mouse blood, 10 min): 71 mAU
- Peak Area of pro-drug ([3]; fresh mouse blood, 15 min): 34 mAU
- Peak Area of pro-drug ([3]; fresh mouse blood, […]): 174 mAU
- Peak Area of pro-drug ([3]; fresh mouse plasma, 0 min): 406 mAU
- Peak Area of pro-drug ([3]; fresh mouse plasma, 5 min): 220 mAU
- Peak Area of pro-drug ([3]; fresh mouse plasma, 7.5 min): 178 mAU
- Peak Area of pro-drug ([3]; fresh mouse plasma, 10 min): 149 mAU
- Peak Area of pro-drug ([3]; fresh mouse plasma, 15 min): 98 mAU
- Peak Area of pro-drug ([3]; fresh mouse plasma, […]): 285 mAU
- Conversion to the parent compound (summary in words) ([3]; mouse plasma): converted to an unknown metabolite, but not substantially to the parent drug
- Conversion to the parent compound (summary in words) ([3]; mouse whole blood): converted to the parent in mouse whole blood via the intermediacy of a metabolite of unknown identity
- Peak Area of pro-drug [4, 7]: 370 mAU
- Peak Area of pro-drug [4, 8]: 332 mAU
- Peak Area of pro-drug [4, 9]: 342 mAU
- Peak Area of pro-drug [4, 10]: 374 mAU
- Peak Area of pro-drug [4, 11]: 359 mAU
- Peak Area of pro-drug [4, 12]: 336 mAU
- Peak Area of pro-drug [4, 13]: 351 mAU
- Peak Area of pro-drug [4, 14]: 355 mAU
- Peak Area of pro-drug [4, 15]: 366 mAU
- Peak Area of pro-drug [4, 16]: 372 mAU
- Peak Area of pro-drug [4, 17]: 371 mAU
- Peak Area of pro-drug [4, 18]: 350 mAU
- Conversion to the parent compound (summary in words) [4]: not measured to convert to the parent drug
- ED50 [1, 19]: > 13.9 mg/kg
- ED50 [1, 20]: 1.6 mg/kg
- solubility at 18 h [5, 21]: > 3690 µg/mL
- solubility at 18 h [5, 22]: > 3360 µg/mL
- Conversion to the parent drug in vivo (in words) (Rat pharmacokinetics; in vivo): rapidly converted to the parent drug
